Tests used:
[1] = target: T1, human MCH receptor 1 (MCHR1) (Homo sapiens, UniProt Q99705); assay: Human MCH receptor 1 (MCHR1) competitive inhibitory activity using binding assay; details: test compound 0.1 μM; [125I]-MCH (4-19); human MCHR1-expressing CHO cellular membrane fraction; read-out: Binding inhibition rate % (0.1 μM)
T1 construct: expressed in transfected cells; host or cells: CHO cell clone 57 (described in WO01/82925); membrane fraction
Experimental: Determination of Human MCH Receptor 1 (MCHR1) Competitive Inhibitory Activity of Test Compound Using Binding Assay
1. Preparation of Membrane Fraction
In phosphate buffered saline (pH 7.4) supplemented with 5 mM EDTA (ethylenediaminetetraacetic acid) were respectively suspended human MCHR1-expressing CHO cells (1×10^8 cells) and centrifuged. Homogenate buffer (10 mL, 10 mM NaHCO3, 5 mM EDTA, pH 7.5, 0.5 mM PMSF (phenylmethylsulfonyl fluoride), 20 mg/L leupeptin, 4 mg/L E-64, 1 mg/L pepstatin A) was added to the pellets of the cells and, using Polytron Homogenizer, the mixture was homogenated. The supernatant obtained after centrifugation at 400×g for 10 min was further centrifuged at 100,000×g for 1 hr to give precipitate of the membrane fraction. The precipitate was suspended in 2 mL of assay buffer [20 mM Tris-HCl (pH 7.5), 5 mM EDTA, 0.5 mM PMSF, 20 mg/L leupeptin, 4 mg/L E-64, 1 mg/L pepstatin A]. The membrane fractions were suspended in assay buffer to a protein concentration of 2 mg/mL, and after dispensing, preserved at −80° C. and used upon thawing each time when in use.
The MCHR1 ligand binding inhibitory activity of the test compound was determined as follows.
The mixture was reacted with stirring at room temperature for 1 hr, and the plate was set on FilterMate Harvester (PerkinElmer). […] The glass filter plate was dried, MicroScint 0 (PerkinElmer) was added at 25 μL/well, and the resulting radioactivity was measured by TopCount liquid scintillation counter (PerkinElmer). The binding inhibition rate of the test compound was calculated by the following formula. Binding inhibition(%)=100−(radioactivity upon addition of test compound and hot MCH−radioactivity upon addition of cold MCH and hot MCH solution)/(radioactivity upon addition of DMSO solution and hot MCH−radioactivity upon addition of cold MCH and hot MCH solution)×100

[2] = target: T2, human MCHR1 (Homo sapiens, UniProt Q99705); assay: MCH receptor 1 antagonistic activity using Ca2+ mobilization assay; format: cell-based; details: test compound 0.1 μM; ligand MCH (4-19) 2 nM; human MCHR1-expressing CHO cells (clone #4); read-out: Inhibition rate % (0.1 μM)
T2 construct: expressed in transfected cells; host or cells: CHO dhfr- cells, clone #4
T2 sequence (Q99705 whole entry): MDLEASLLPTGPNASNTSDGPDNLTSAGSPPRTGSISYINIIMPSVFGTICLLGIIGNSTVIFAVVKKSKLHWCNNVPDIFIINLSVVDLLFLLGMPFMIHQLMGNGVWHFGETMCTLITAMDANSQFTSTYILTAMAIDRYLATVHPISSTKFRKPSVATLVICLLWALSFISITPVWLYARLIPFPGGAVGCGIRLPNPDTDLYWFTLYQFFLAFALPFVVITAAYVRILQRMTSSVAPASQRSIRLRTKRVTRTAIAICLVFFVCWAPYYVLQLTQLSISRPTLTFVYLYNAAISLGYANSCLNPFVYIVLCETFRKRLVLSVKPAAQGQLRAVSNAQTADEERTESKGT
Experimental: Measurement of MCH Receptor 1 Antagonistic Activity of Test Compound Using Ca^2+ Mobilization Assay
Using an expression vector plasmid introduced with human MCHR1 gene for expression in animal cells, human MCHR1 gene was introduced into CHO cells (CHO dhfr^−) by Lipofectamine LTX (Invitrogen). The cells were cultured in selection MEMα medium [445 mL of MEMα medium without nucleic acid and added with 5 mL of Penicillin-Streptomycin (Invitrogen) and 50 mL of dialyzed fetal bovine serum]. Colony 24 clones grown in the selection medium, which were human MCHR1 gene-expressing CHO cell candidates, were selected. […] An integrated dispensing function fluorometer (CellLux, PerkinElmer) was used for Ca^2+ mobilization assay. […] The medium was removed, and the cells were washed with phosphate buffered saline (PBS). A Ca^2+ indicator dye reagent (DOJINDO LABORATORIES, Ca screening no-wash kit Fluo4) was added at 100 μL/well, and the dye was allowed to penetrate into the cells for 30 min in an incubator at 5% CO2, 37° C. The plate was set on a plate reader. First, a test compound solution diluted with an assay buffer [10 mM HEPES (pH 7.4), 1× assay buffer containing 0.1% BSA (DOJINDO LABORATORIES, attached to Ca screening no-wash kit Fluo4)] or DMSO solution was added at 50 μL/well, and then ligand MCH (4-19) peptide (final concentration 2 nM) diluted with assay buffer or DMSO was added at 50 μL/well, during which changes in intracellular fluorescence were measured at 2 second intervals.

T1 sequence (Q99705 whole entry): as above

Row | inhibition at 0.1 µM [1] | inhibition at 0.1 µM [2] | SMILES
1 | 43% | 73% | CCn1nc2ccc(-n3ccc(OCc4ccc(Cl)cc4)cc3=O)cc2c1C [Example 2, 4-[(4-chlorobenzyl)oxy]-1-(2-ethyl-3-methyl-2H-indazol-5-yl)pyridin-2(1H)-one]
2 | 37% |  | CCCn1nc2ccc(-n3ccc(OCc4ccc(Cl)cc4)cc3=O)cc2c1C [Example 3, 4-[(4-chlorobenzyl)oxy]-1-(3-methyl-2-propyl-2H-indazol-5-yl)pyridin-2(1H)-one]
3 | 78% | 86% | Cc1c2cc(-n3ccc(OCc4ccc(Cl)cc4)cc3=O)ccc2nn1C1CC1 [Example 5, 4-[(4-chlorobenzyl)oxy]-1-(2-cyclopropyl-3-methyl-2H-indazol-5-yl)pyridin-2(1H)-one]
4 | 44% | 66% | Cc1c2cc(-n3ccc(OCc4ccccc4)cc3=O)ccc2nn1C1CC1 [Example 7, 4-(benzyloxy)-1-(2-cyclopropyl-3-methyl-2H-indazol-5-yl)pyridin-2(1H)-one]
5 | 68% | 55% | Cc1c2cc(-n3ccc(OCc4ccc(Cl)s4)cc3=O)ccc2nn1C1CC1 [Example 8, 4-[(5-chlorothiophen-2-yl)methoxy]-1-(2-cyclopropyl-3-methyl-2H-indazol-5-yl)pyridin-2(1H)-one]
6 | 36% |  | Cc1c2cc(-n3ccc(OCc4ccccc4)cc3=O)ccc2nn1C [Example 9, 4-(benzyloxy)-1-(2,3-dimethyl-2H-indazol-5-yl)pyridin-2(1H)-one]
7 | 39% | 51% | Cc1c2cc(-n3ccc(OCc4ccc(C(F)(F)F)s4)cc3=O)ccc2nn1C [Example 10, 1-(2,3-dimethyl-2H-indazol-5-yl)-4-{[5-(trifluoromethyl)thiophen-2-yl]methoxy}pyridin-2(1H)-one]
8 | 42% | 38% | Cc1c2cc(-n3ccc(OCc4cccc(Cl)c4)cc3=O)ccc2nn1C [Example 12, 4-[(3-chlorobenzyl)oxy]-1-(2,3-dimethyl-2H-indazol-5-yl)pyridin-2(1H)-one]
9 | 47% | 57% | Cc1c2cc(-n3ccc(OCc4cc5ccccc5o4)cc3=O)ccc2nn1C [Example 16, 4-(1-benzofuran-2-ylmethoxy)-1-(2,3-dimethyl-2H-indazol-5-yl)pyridin-2(1H)-one]
10 | 45% | 63% | Cc1c2cc(-n3ccc(OCc4ccc(Cl)cn4)cc3=O)ccc2nn1C1CC1 [Example 18, 4-[(5-chloropyridin-2-yl)methoxy]-1-(2-cyclopropyl-3-methyl-2H-indazol-5-yl)pyridin-2(1H)-one]
11 | 57% | 77% | Cc1c2cc(-n3ccc(OCc4ccc(Br)cn4)cc3=O)ccc2nn1C [Example 23, 4-[(5-bromopyridin-2-yl)methoxy]-1-(2,3-dimethyl-2H-indazol-5-yl)pyridin-2(1H)-one]
12 | 60% | 92% | Cc1c2cc(-n3ccc(OCc4ccc(Br)s4)cc3=O)ccc2nn1C [Example 27, 4-[(5-bromothiophen-2-yl)methoxy]-1-(2,3-dimethyl-2H-indazol-5-yl)pyridin-2(1H)-one]
13 | 68% | 93% | Cc1c2cc(-n3ccc(OCc4ccc(Br)cn4)cc3=O)ccc2nn1C1CC1 [Example 28, 4-[(5-bromopyridin-2-yl)methoxy]-1-(2-cyclopropyl-3-methyl-2H-indazol-5-yl)pyridin-2(1H)-one]
14 | 34% | 89% | Cc1c2cc(-n3ccc(OCc4nc(Br)cs4)cc3=O)ccc2nn1C [Example 30, 4-[(4-bromo-1,3-thiazol-2-yl)methoxy]-1-(2,3-dimethyl-2H-indazol-5-yl)pyridin-2(1H)-one]
15 | 54% |  | Cc1c2c(F)c(-n3ccc(OCc4ccc(Cl)cc4)cc3=O)ccc2nn1C [Example 32, 4-[(4-chlorobenzyl)oxy]-1-(4-fluoro-2,3-dimethyl-2H-indazol-5-yl)pyridin-2(1H)-one]
16 | 76% | 96% | Cc1c2cc(-n3ccc(OCc4nc(C(F)(F)F)cs4)cc3=O)ccc2nn1C1CC1 [Example 33, 1-(2-cyclopropyl-3-methyl-2H-indazol-5-yl)-4-{[4-(trifluoromethyl)-1,3-thiazol-2-yl]methoxy}pyridin-2(1H)-one]
17 | 37% | 83% | CCn1nc2ccc(-n3ccc(OCc4nc(C(F)(F)F)cs4)cc3=O)cc2c1C [Example 36, 1-(2-ethyl-3-methyl-2H-indazol-5-yl)-4-{[4-(trifluoromethyl)-1,3-thiazol-2-yl]methoxy}pyridin-2(1H)-one]
18 | 45% | 78% | Cc1c2cc(-n3ccc(OCc4nc(C(F)(F)F)cs4)cc3=O)ccc2nn1C [Example 38, 1-(2,3-dimethyl-2H-indazol-5-yl)-4-{[4-(trifluoromethyl)-1,3-thiazol-2-yl]methoxy}pyridin-2(1H)-one]
19 | 33% | 71% | Cc1c2cc(-n3ccc(OCc4csc(C(F)(F)F)n4)cc3=O)ccc2nn1C [Example 39, 1-(2,3-dimethyl-2H-indazol-5-yl)-4-{[2-(trifluoromethyl)-1,3-thiazol-4-yl]methoxy}pyridin-2(1H)-one]
20 | 55% | 70% | Cc1c2cc(-n3ccc(OCc4cc(C(F)(F)F)cs4)cc3=O)ccc2nn1C [Example 41, 1-(2,3-dimethyl-2H-indazol-5-yl)-4-{[4-(trifluoromethyl)thiophen-2-yl]methoxy}pyridin-2(1H)-one]
21 | 46% | 65% | Cc1c2cc(-n3ccc(OCc4ccc(F)cc4)cc3=O)ccc2nn1C [Example 42, 1-(2,3-dimethyl-2H-indazol-5-yl)-4-[(4-fluorobenzyl)oxy]pyridin-2(1H)-one]
22 | 71% | 72% | Cc1c2cc(-n3ccc(OCc4cc(C(F)(F)F)cs4)cc3=O)ccc2nn1C1CC1 [Example 43, 1-(2-cyclopropyl-3-methyl-2H-indazol-5-yl)-4-{[4-(trifluoromethyl)thiophen-2-yl]methoxy}pyridin-2(1H)-one]
23 | 49% | 43% | Cc1c2cc(-n3ccc(OCc4ccc(C(F)(F)F)s4)cc3=O)ccc2nn1C1CC1 [Example 45, 1-(2-cyclopropyl-3-methyl-2H-indazol-5-yl)-4-{[5-(trifluoromethyl)thiophen-2-yl]methoxy}pyridin-2(1H)-one]

From patent publication US9199963B2, “Heterocyclic compound” (Takeda Pharmaceutical Company Limited, priority 2013, dated 2015)
